From paper PMC2248166, “Quantitative peptide binding motifs for 19 human and mouse MHC class I molecules derived using positional scanning combinatorial peptide libraries” (Immunome Research, 2008)

Legend:
HLA B*2705 = HLA B*2705 (Homo sapiens, UniProt P01889, D138H/D201E/E176V/E204Q/G107R/H137Y/K202T/N104T/N87E/Q56L/Q94K/R106L/R155S/R180L/S101D/S121N/S48T/Y140D/Y33H/Y91C); format: binding; details: positional scanning combinatorial 9-mer library; normalized to 1.0 for the best residue at each position
H-2 D^b = H-2 D^b (Mus musculus, UniProt P01899); format: binding
HLA B*5802 = HLA B*5802 (Homo sapiens, UniProt P01889, A329T/C349S/D201E/D98Y/E176V/E187L/E204Q/E69T/G107R/I218V/I90N/K202T/L105A/N104I/N87E/Q89R/Q94S/R106L/R155S/R180L/R86G/S101N/S121W/S35A/S48A/V127L/V306I/V36M/Y140S/Y91M); format: binding
HLA A*3201 = HLA A*3201 (Homo sapiens, UniProt P04439, A270S/D101S/D185E/E176V/E277Q/F133L/G103R/G107R/G231S/H175R/I121M/I218V/I322F/K168Q/L105A/L300P/L318F/M331R/P208A/P217A/Q94H/R106L/R138Q/S129P/T104I/T323A/T345S/V100E/V321M/V358M); experiment: biochemical; format: binding
HLA B*1503 = HLA B*1503 (Homo sapiens, UniProt P01889, A329T/A93T/A95T/C349S/D201E/D98Y/E187L/E204Q/K202T/N87E/Q94N/R155S/R180L/S121R/S35A/V306I/V36M/Y140S/Y91S); experiment: biochemical; format: binding
H-2 D^d = H-2 D^d (Mus musculus, UniProt P01900); format: binding
H-2 K^k = H-2 K^k (Mus musculus, UniProt P04223); format: binding
HLA A*6802 = HLA A*6802 (Homo sapiens, UniProt P04439, A269V/D140Y/D185E/E176V/E277Q/E87N/F33Y/G231S/I121R/I166T/I218V/L180W/L300P/L318F/N151K/P208A/P217A/Q86R/R138H/R169H/S129P/T345S/V36M); format: binding
HLA B*5401 = HLA B*5401 (Homo sapiens, UniProt P01889, A329T/C349S/D138N/D201E/E176V/E187T/E204Q/E69G/I76V/K202T/L119W/R155S/R180L/S121T/S35A/S48A/V127L/V306I/V36M/Y140L); format: binding
HLA B*3501 = HLA B*3501 (Homo sapiens, UniProt P01889, A329T/A93T/A95T/C349S/D201E/D98Y/E176V/E187L/E204Q/E69T/I218V/K202T/L119I/Q94N/R155S/R180L/S121R/S35A/S48A/T118I/V127L/V306I/V36M/Y140S/Y91F); format: binding
HLA B*1501 = HLA B*1501 (Homo sapiens, UniProt P01889, A329T/A93T/A95T/C349S/D201E/D98Y/E187L/E204Q/E69M/E70A/K202T/N87E/Q94N/R155S/R180W/S121R/S35A/S48A/V306I/V36M/Y140S/Y91S); experiment: biochemical; format: binding
HLA B*0702 = HLA B*0702 (Homo sapiens, UniProt P01889); format: binding; details: positional scanning combinatorial 9-mer library; normalized to 1.0 for the best residue at each position
HLA A*3001 = HLA A*3001 (Homo sapiens, UniProt P04439, D140H/D185E/E176W/F33S/G80R/H175R/K168Q/R138E/R41S); experiment: biochemical; format: binding
HLA A*0201 = HLA A*0201 (Homo sapiens, UniProt P04439, D140Y/D185E/D98H/E176V/E277Q/G131W/G231S/I119V/I121R/I166T/I218V/L300P/L318F/N151K/N90K/P208A/P217A/Q86G/Q94H/R138H/R169H/T345S); details: positional scanning combinatorial 9-mer library; normalized to 1.0 for the best residue at each position
HLA B*0801 = HLA B*0801 (Homo sapiens, UniProt P01889, A93T/A95T/D138N/E176V/E187T/K202T/Q94N/R180D/S35A/V36M/Y33D/Y91F); experiment: biochemical; format: binding
HLA B*5101 = HLA B*5101 (Homo sapiens, UniProt P01889, A329T/A93T/A95T/C349S/D138N/D201E/D98Y/E187L/E204Q/E69T/G107R/I218V/K202T/L105A/L119W/N104I/Q94N/R106L/R155S/R180L/S101N/S121T/S35A/S48A/V306I/V36M/Y195H/Y91F); format: binding
HLA B*5801 = HLA B*5801 (Homo sapiens, UniProt P01889, A329T/C349S/D201E/D98Y/E176V/E187L/E204Q/E69T/G107R/I218V/I90N/K202T/L105A/L119I/N104I/N87E/Q89R/Q94S/R106L/R155S/R180L/R86G/S101N/S121R/S35A/S48A/T118I/V127L/V306I/V36M/Y140S/Y91M); format: binding
HLA B*5301 = HLA B*5301 (Homo sapiens, UniProt P01889, A329T/A93T/A95T/C349S/D201E/D98Y/E176V/E187L/E204Q/E69T/G107R/I218V/K202T/L105A/L119I/N104I/Q94N/R106L/R155S/R180L/S101N/S121R/S35A/S48A/T118I/V127L/V306I/V36M/Y140S/Y91F); format: binding

H-2 K^k, sequence (P01887 21-119): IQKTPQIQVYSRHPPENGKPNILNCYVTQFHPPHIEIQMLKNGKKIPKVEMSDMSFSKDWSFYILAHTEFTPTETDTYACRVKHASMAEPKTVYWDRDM
H-2 K^k, sequence (P04223 22-369): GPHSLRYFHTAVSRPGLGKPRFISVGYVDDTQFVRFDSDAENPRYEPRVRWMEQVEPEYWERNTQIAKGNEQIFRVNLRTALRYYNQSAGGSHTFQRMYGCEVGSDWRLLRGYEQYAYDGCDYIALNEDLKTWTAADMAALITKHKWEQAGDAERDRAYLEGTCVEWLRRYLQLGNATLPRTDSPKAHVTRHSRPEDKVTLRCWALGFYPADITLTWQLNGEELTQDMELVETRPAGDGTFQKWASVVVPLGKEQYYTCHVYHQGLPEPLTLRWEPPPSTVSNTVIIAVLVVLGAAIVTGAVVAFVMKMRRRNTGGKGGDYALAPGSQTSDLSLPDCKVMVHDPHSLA
H-2 D^b, sequence (P01887 21-119): as the sequence (P01887 21-119) above
H-2 D^b, sequence (P01899 25-362): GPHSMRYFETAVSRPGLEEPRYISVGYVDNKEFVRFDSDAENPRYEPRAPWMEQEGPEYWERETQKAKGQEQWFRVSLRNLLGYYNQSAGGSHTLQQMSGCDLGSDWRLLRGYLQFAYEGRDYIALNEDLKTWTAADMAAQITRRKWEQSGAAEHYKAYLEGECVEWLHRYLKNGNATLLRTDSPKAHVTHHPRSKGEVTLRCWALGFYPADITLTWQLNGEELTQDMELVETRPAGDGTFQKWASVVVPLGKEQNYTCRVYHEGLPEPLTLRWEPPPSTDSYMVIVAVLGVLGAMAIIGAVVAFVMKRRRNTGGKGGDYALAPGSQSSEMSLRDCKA
H-2 D^d, sequence (P01900 whole entry, looked up): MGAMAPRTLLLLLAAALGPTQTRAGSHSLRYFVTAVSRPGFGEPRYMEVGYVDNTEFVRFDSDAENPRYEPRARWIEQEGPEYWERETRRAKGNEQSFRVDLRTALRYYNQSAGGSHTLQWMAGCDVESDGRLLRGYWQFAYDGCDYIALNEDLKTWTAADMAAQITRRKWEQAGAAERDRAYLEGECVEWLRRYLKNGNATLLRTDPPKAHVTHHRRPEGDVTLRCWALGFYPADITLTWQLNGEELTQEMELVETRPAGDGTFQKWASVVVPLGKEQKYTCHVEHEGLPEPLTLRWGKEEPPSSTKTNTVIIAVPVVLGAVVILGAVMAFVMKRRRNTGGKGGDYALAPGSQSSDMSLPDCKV

Sequence | Normalized average relative binding affinity (ARB), HLA B*2705 (HLA B*2705) | Normalized average relative binding affinity (ARB), H-2 Db (H-2 D^b) | Normalized average relative binding affinity (ARB), HLA B*5802 (HLA B*5802) | Normalized average relative binding affinity (ARB), HLA A*3201 (HLA A*3201) | Normalized average relative binding affinity (ARB), HLA B*1503 (HLA B*1503) | Normalized average relative binding affinity (ARB), H-2 Dd (H-2 D^d) | Normalized average relative binding affinity (ARB), H-2 Kk (H-2 K^k) | Normalized average relative binding affinity (ARB), HLA A*6802 (HLA A*6802) | Normalized average relative binding affinity (ARB), HLA B*5401 (HLA B*5401) | Normalized average relative binding affinity (ARB), HLA B*3501 (HLA B*3501) | Normalized average relative binding affinity (ARB), HLA B*1501 (HLA B*1501) | Normalized average relative binding affinity (ARB), HLA B*0702 (HLA B*0702) | Normalized average relative binding affinity (ARB), HLA A*3001 (HLA A*3001) | Normalized average relative binding affinity (ARB), HLA A*0201 (HLA A*0201) | Normalized average relative binding affinity (ARB), HLA B*0801 (HLA B*0801) | Normalized average relative binding affinity (ARB), HLA B*5101 (HLA B*5101) | Normalized average relative binding affinity (ARB), HLA B*5801 (HLA B*5801) | Normalized average relative binding affinity (ARB), HLA B*5301 (HLA B*5301)
XHXXXXXXX [3064.0027] | 0.0065 | 0.099 | 0.030 | 0.047 | 0.16 | 0.061 | 0.0052 | 0.0031 | 0.0014 | 0.0078 | 0.015 | 0.0028 | 0.082 | 0.0016 | 0.028 | 0.029 | 0.061 | 0.0036
XIXXXXXXX [3064.0028] | 0.0022 | 0.076 | 0.11 | 0.35 | 0.026 | 0.018 | 0.0026 | 0.15 | 0.0071 | 0.032 | 0.42 | 0.033 | 0.18 | 0.057 | 0.24 | 0.047 | 0.046 | 0.11
XKXXXXXXX [3064.0029] | 0.0076 | 0.052 | 0.045 | 0.0079 | 0.29 | 0.093 | 0.0031 | 0.011 | 0.0038 | 0.0078 | 0.0091 | 0.0028 | 0.026 | 0.012 | 0.097 | 0.022 | 0.014 | 0.0053
